Experiments:
[1] = tested on: HCV genotype 1a (H77 strain) replicon in HUH-7 cells; test: HCV replicon luciferase reporter assay, genotype 1a; assay type: cell-based; conditions: Hepatitis C virus, Huh-7, 72 h, HCV genotype 1a replicon luciferase assay, 3 days incubation, range class, read-out: LE_1a (EC50, range)
In short: (§1)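 Replicon inhibition for both genotypes was measured as Renilla luciferase signal (EnduRen, 7.5 μM final, 2 h) after 3-day, 37° C exposure of replicon-bearing HUH-7 cells in 4% FCS DMEM, 0.5% DMSO. The 1b construct carries S1179I; the 1a H77 construct carries P1496L and S2204I. Twenty-point, 3-fold dilutions were fitted four-parametrically for EC50, and CC50 was taken from multiplexed Cell Titer-Blue.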

[2] = tested on: HCV genotype 1b (Con1) replicon in HUH-7 cells; test: HCV replicon luciferase reporter assay, genotype 1b; assay type: cell-based; conditions: Hepatitis C virus, Huh-7, 72 h, HCV genotype 1b replicon luciferase assay, 3 days incubation, range class, read-out: LE_1b (EC50, range)
In short: as §1

Row | Structure (SMILES) | EC50 [1] [nM] | EC50 [2] [nM]
1 | COc1cnc(O[C@@H]2C[C@H]3C(=O)N[C@]4(C(=O)NS(=O)(=O)C5(CF)CC5)C[C@H]4/C=C\CC[C@H](C)C[C@@H](C)[C@H](NC(=O)OC(C)(C)C)C(=O)N3C2)c2ccc(F)cc12 [Compound 3145, tert-butyl ((2R,6S,7R,9S,13aS,14aR,16aS,Z)-2-((6-fluoro-4-methoxyisoquinolin-1-yl)oxy)-14a-(((1-(fluoromethyl)cyclopropyl)sulfonyl)carbamoyl)-7,9-dimethyl-5,16-dioxo-1,2,3,5,6,7,8,9,10,11,13a,14,14a,15,16,16a-hexadecahydrocyclopropa[e]pyrrolo[1,2-a][1,4]diazacyclopentadecin-6-yl)carbamate] | 4.82 to 103 | 4.82 to 103
2 | COc1cnc(O[C@@H]2C[C@H]3C(=O)N[C@]4(C(=O)NS(=O)(=O)C5(CF)CC5)C[C@H]4/C=C\CC[C@@H](C)C[C@@H](C)[C@H](NC(=O)OC(C)(C)C)C(=O)N3C2)c2ccc(F)cc12 [Compound 3146, tert-butyl ((2R,6S,7R,9R,13aS,14aR,16aS,Z)-2-((6-fluoro-4-methoxyisoquinolin-1-yl)oxy)-14a-(((1-(fluoromethyl)cyclopropyl)sulfonyl)carbamoyl)-7,9-dimethyl-5,16-dioxo-1,2,3,5,6,7,8,9,10,11,13a,14,14a,15,16,16a-hexadecahydrocyclopropa[e]pyrrolo[1,2-a][1,4]diazacyclopentadecin-6-yl)carbamate] | < 5.46 | < 5.46
3 | COc1ccc2c(O[C@@H]3C[C@H]4C(=O)N[C@]5(C(=O)NS(=O)(=O)C6CC6)C[C@H]5/C=C\CC[C@H](C)C[C@@H](C)[C@H](NC(=O)OC(C)(C)C)C(=O)N4C3)nccc2c1F [Compound 3147, tert-butyl ((2R,6S,7R,9S,13aS,14aR,16aS,Z)-14a-((cyclopropylsulfonyl)carbamoyl)-2-((5-fluoro-6-methoxyisoquinolin-1-yl)oxy)-7,9-dimethyl-5,16-dioxo-1,2,3,5,6,7,8,9,10,11,13a,14,14a,15,16,16a-hexadecahydrocyclopropa[e]pyrrolo[1,2-a][1,4]diazacyclopentadecin-6-yl)carbamate] | 4.82 to 103 | < 5.46
4 | COc1ccc2c(O[C@@H]3C[C@H]4C(=O)N[C@]5(C(=O)NS(=O)(=O)C6CC6)C[C@H]5/C=C\CC[C@@H](C)C[C@@H](C)[C@H](NC(=O)OC(C)(C)C)C(=O)N4C3)nccc2c1F [Compound 3148, tert-butyl ((2R,6S,7R,9R,13aS,14aR,16aS,Z)-14a-((cyclopropylsulfonyl)carbamoyl)-2-((5-fluoro-6-methoxyisoquinolin-1-yl)oxy)-7,9-dimethyl-5,16-dioxo-1,2,3,5,6,7,8,9,10,11,13a,14,14a,15,16,16a-hexadecahydrocyclopropa[e]pyrrolo[1,2-a][1,4]diazacyclopentadecin-6-yl)carbamate] | < 5.46 | < 5.46
5 | COc1ccc2c(O[C@@H]3C[C@H]4C(=O)N[C@]5(C(=O)NS(=O)(=O)C6CC6)C[C@H]5/C=C\CC[C@H](C)C[C@@H](C)[C@H](NC(=O)OC(C)(C)C(F)(F)F)C(=O)N4C3)nccc2c1F [Compound 3149, 1,1,1-trifluoro-2-methylpropan-2-yl((2R,6S,7R,9S,13aS,14aR,16aS,Z)-14a-((cyclopropylsulfonyl)carbamoyl)-2-((5-fluoro-6-methoxyisoquinolin-1-yl)oxy)-7,9-dimethyl-5,16-dioxo-1,2,3,5,6,7,8,9,10,11,13a,14,14a,15,16,16a-hexadecahydrocyclopropa[e]pyrrolo[1,2-a][1,4]diazacyclopentadecin-6-yl)carbamate] | 4.82 to 103 | < 5.46
6 | COc1ccc2c(O[C@@H]3C[C@H]4C(=O)N[C@]5(C(=O)NS(=O)(=O)C6CC6)C[C@H]5/C=C\CC[C@@H](C)C[C@@H](C)[C@H](NC(=O)OC(C)(C)C(F)(F)F)C(=O)N4C3)nccc2c1F [Compound 3150, 1,1,1-trifluoro-2-methylpropan-2-yl((2R,6S,7R,9R,13aS,14aR,16aS,Z)-14a-((cyclopropylsulfonyl)carbamoyl)-2-((5-fluoro-6-methoxyisoquinolin-1-yl)oxy)-7,9-dimethyl-5,16-dioxo-1,2,3,5,6,7,8,9,10,11,13a,14,14a,15,16,16a-hexadecahydrocyclopropa[e]pyrrolo[1,2-a][1,4]diazacyclopentadecin-6-yl)carbamate] | < 5.46 | < 5.46
7 | COc1ccc2c(O[C@@H]3C[C@H]4C(=O)N[C@]5(C(=O)NS(=O)(=O)C6CC6)C[C@H]5/C=C\CC[C@H](C)C[C@@H](C)[C@H](NC(=O)O[C@@H]5C[C@@H]6C[C@@H]6C5)C(=O)N4C3)nccc2c1F [Compound 3151, (1R,3r,5S)-bicyclo[3.1.0]hexan-3-yl((2R,6S,7R,9S,13aS,14aR,16aS,Z)-14a-((cyclopropylsulfonyl)carbamoyl)-2-((5-fluoro-6-methoxyisoquinolin-1-yl)oxy)-7,9-dimethyl-5,16-dioxo-1,2,3,5,6,7,8,9,10,11,13a,14,14a,15,16,16a-hexadecahydrocyclopropa[e]pyrrolo[1,2-a][1,4]diazacyclopentadecin-6-yl)carbamate] | 4.82 to 103 | < 5.46
8 | COc1ccc2c(O[C@@H]3C[C@H]4C(=O)N[C@]5(C(=O)NS(=O)(=O)C6CC6)C[C@H]5/C=C\CC[C@@H](C)C[C@@H](C)[C@H](NC(=O)O[C@@H]5C[C@@H]6C[C@@H]6C5)C(=O)N4C3)nccc2c1F [Compound 3152, (1R,3r,5S)-bicyclo[3.1.0]hexan-3-yl((2R,6S,7R,9R,13aS,14aR,16aS,Z)-14a-((cyclopropylsulfonyl)carbamoyl)-2-((5-fluoro-6-methoxyisoquinolin-1-yl)oxy)-7,9-dimethyl-5,16-dioxo-1,2,3,5,6,7,8,9,10,11,13a,14,14a,15,16,16a-hexadecahydrocyclopropa[e]pyrrolo[1,2-a][1,4]diazacyclopentadecin-6-yl)carbamate] | < 5.46 | < 5.46
9 | COc1cc(F)cc2c(O[C@@H]3C[C@H]4C(=O)N[C@]5(C(=O)NS(=O)(=O)C6(C)CC6)C[C@H]5/C=C\CC[C@H](C)C[C@@H](C)[C@H](NC(=O)OC(C)(C)C)C(=O)N4C3)nccc12 [Compound 3153, tert-butyl ((2R,6S,7R,9S,13aS,14aR,16aS,Z)-2-((7-fluoro-5-methoxyisoquinolin-1-yl)oxy)-7,9-dimethyl-14a-(((1-methylcyclopropyl)sulfonyl)carbamoyl)-5,16-dioxo-1,2,3,5,6,7,8,9,10,11,13a,14,14a,15,16,16a-hexadecahydrocyclopropa[e]pyrrolo[1,2-a][1,4]diazacyclopentadecin-6-yl)carbamate] | 4.82 to 103 | 4.82 to 103
10 | COc1cc(F)cc2c(O[C@@H]3C[C@H]4C(=O)N[C@]5(C(=O)NS(=O)(=O)C6(C)CC6)C[C@H]5/C=C\CC[C@@H](C)C[C@@H](C)[C@H](NC(=O)OC(C)(C)C)C(=O)N4C3)nccc12 [Compound 3154, tert-butyl ((2R,6S,7R,9R,13aS,14aR,16aS,Z)-2-((7-fluoro-5-methoxyisoquinolin-1-yl)oxy)-7,9-dimethyl-14a-(((1-methylcyclopropyl)sulfonyl)carbamoyl)-5,16-dioxo-1,2,3,5,6,7,8,9,10,11,13a,14,14a,15,16,16a-hexadecahydrocyclopropa[e]pyrrolo[1,2-a][1,4]diazacyclopentadecin-6-yl)carbamate] | < 5.46 | < 5.46
11 | COc1cc(F)cc2c(O[C@@H]3C[C@H]4C(=O)N[C@]5(C(=O)NS(=O)(=O)C6(C)CC6)C[C@H]5/C=C\CC[C@H](C)C[C@@H](C)[C@H](NC(=O)OC(C)(C)C(F)(F)F)C(=O)N4C3)nccc12 [Compound 3155, 1,1,1-trifluoro-2-methylpropan-2-yl((2R,6S,7R,9S,13aS,14aR,16aS,Z)-2-((7-fluoro-5-methoxyisoquinolin-1-yl)oxy)-7,9-dimethyl-14a-(((1-methylcyclopropyl)sulfonyl)carbamoyl)-5,16-dioxo-1,2,3,5,6,7,8,9,10,11,13a,14,14a,15,16,16a-hexadecahydrocyclopropa[e]pyrrolo[1,2-a][1,4]diazacyclopentadecin-6-yl)carbamate] | 4.82 to 103 | 4.82 to 103
12 | COc1cc(F)cc2c(O[C@@H]3C[C@H]4C(=O)N[C@]5(C(=O)NS(=O)(=O)C6(C)CC6)C[C@H]5/C=C\CC[C@@H](C)C[C@@H](C)[C@H](NC(=O)OC(C)(C)C(F)(F)F)C(=O)N4C3)nccc12 [Compound 3156, 1,1,1-trifluoro-2-methylpropan-2-yl((2R,6S,7R,9R,13aS,14aR,16aS,Z)-2-((7-fluoro-5-methoxyisoquinolin-1-yl)oxy)-7,9-dimethyl-14a-(((1-methylcyclopropyl)sulfonyl)carbamoyl)-5,16-dioxo-1,2,3,5,6,7,8,9,10,11,13a,14,14a,15,16,16a-hexadecahydrocyclopropa[e]pyrrolo[1,2-a][1,4]diazacyclopentadecin-6-yl)carbamate] | < 5.46 | < 5.46
13 | COc1cc(F)cc2c(O[C@@H]3C[C@H]4C(=O)N[C@]5(C(=O)NS(=O)(=O)C6(C)CC6)C[C@H]5/C=C\CC[C@H](C)C[C@@H](C)[C@H](NC(=O)O[C@H](C)C(F)(F)F)C(=O)N4C3)nccc12 [Compound 3157, (R)-1,1,1-trifluoropropan-2-yl ((2R,6S,7R,9S,13aS,14aR,16aS,Z)-2-((7-fluoro-5-methoxyisoquinolin-1-yl)oxy)-7,9-dimethyl-14a-(((1-methylcyclopropyl)sulfonyl)carbamoyl)-5,16-dioxo-1,2,3,5,6,7,8,9,10,11,13a,14,14a,15,16,16a-hexadecahydrocyclopropa[e]pyrrolo[1,2-a][1,4]diazacyclopentadecin-6-yl)carbamate] | 4.82 to 103 | < 5.46
